Literature values, collected in patent US20060122261A1, “[METHOD OF PREPARING LABDANE DITERPENE COMPOSITION, PREFERABLY ISOFORSKOLIN AND DEACETYLFORSKOLIN FROM FORSKOLIN EXTRACT AND THEIR USE FOR PROMOTING LEAN BODY MASS AND OTHER APPLICATIONS]” (priority 2003, published 2006).

How the values were obtained:
adenylate cyclase = conditions: Rupp, de Souza, Dohadwalla 1985
[1] = Rupp, de Souza, Dohadwalla 1985

Structure (SMILES) | Effectiveness as adenylate cyclase activator relative to Forskolin (adenylate cyclase) | Effectiveness as hypotensive, anti-hypertensive, positive inotropic relative to Forskolin [1]
C=C[C@@]1(C)CC(=O)[C@@]2(O)[C@](C)(O1)[C@@H](O)[C@@H](OC(C)=O)C1C(C)(C)CC[C@H](O)[C@@]12C (stereo partly shown) [6-acetyl-7-deacetylforskolin] | equally effective as Forskolin | equally effective as Forskolin
C=C[C@@]1(C)CC(=O)[C@]2(O)[C@@]3(C)[C@@H](O)CCC(C)(C)[C@@H]3[C@H](O)[C@H](O)[C@@]2(C)O1 [7-deacetylforskolin] | equally effective as Forskolin | equally effective as Forskolin
